The term IC50 denotes the midpoint of a concentration-inhibition curve.

Counter-ions that a name gives are not always drawn. A value given as a limit tells only on which side of the number the result lay.

This experiment deals with T1, human SPNS2 (Homo sapiens, UniProt Q8IVW8).
T1 construct: expressed in transfected cells; host or cells: Saccharomyces cerevisiae strain with forced expression of a mammalian SphK and human SPNS2
T1 sequence (Q8IVW8 1-549): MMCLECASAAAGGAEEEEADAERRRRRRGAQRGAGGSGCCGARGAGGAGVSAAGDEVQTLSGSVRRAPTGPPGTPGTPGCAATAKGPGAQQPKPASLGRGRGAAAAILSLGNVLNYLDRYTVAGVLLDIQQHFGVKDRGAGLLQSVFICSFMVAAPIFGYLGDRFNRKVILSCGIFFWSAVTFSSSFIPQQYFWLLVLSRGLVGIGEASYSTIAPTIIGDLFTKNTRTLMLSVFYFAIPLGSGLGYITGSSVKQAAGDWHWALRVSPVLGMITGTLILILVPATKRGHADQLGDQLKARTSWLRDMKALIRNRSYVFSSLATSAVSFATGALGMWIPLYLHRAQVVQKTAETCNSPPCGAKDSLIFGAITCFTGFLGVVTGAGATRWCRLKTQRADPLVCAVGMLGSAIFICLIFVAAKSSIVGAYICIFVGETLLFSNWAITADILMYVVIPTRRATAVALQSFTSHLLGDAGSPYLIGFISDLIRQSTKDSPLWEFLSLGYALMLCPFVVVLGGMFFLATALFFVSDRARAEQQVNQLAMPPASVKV
The experiment is described as follows: S1P transporter assay: growth of S. cerevisiae strain with forced expression of a mammalian SphK and human SPNS2. Format: cell-based. To be noted: in vitro inhibition of SPNS2; growth of S. cerevisiae strain expressing mammalian SphK and human SPNS2; compounds as their pharmaceutical salts. A digest of the protocol: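 S. cerevisiae strain with forced expression of a mammalian SphK and human SPNS2; since excess phospho-LCB inhibits yeast growth, SPNS2 inhibitors reduce growth of this strain. Inhibition measured in vitro as decreased strain growth.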
On to `CCCCCCCCCc1ccc(-c2noc([C@@H]3CCCNC3)n2)cc1C(F)(F)F` [Compound 28d, (R)-3-(4-nonyl-3-(trifluoromethyl)phenyl)-5-(piperidin-3-yl)-1,2,4-oxadiazole hydrochloride], for which the half-maximal inhibitory concentration (IC50) was greater than 2000 nM.

As for `Fc1cc(Nc2ccc(-c3noc([C@@H]4CCCNC4)n3)cn2)ccc1OC(F)(F)F` [Compound 13c, (R)—N-(3-fluoro-4-(trifluoromethoxy)phenyl)-5-(5-(piperidin-3-yl)-1,2,4-oxadiazol-3-yl)pyridin-2-amine hydrochloride], the concentration for half-maximal inhibition (IC50) was greater than 2000 nM.

`CCCCCCCCCc1ccc(-c2noc([C@@H]3CCN(C(=N)N)C3)n2)cc1` [Compound 7xb, (R)-3-(3-(4-nonylphenyl)-1,2,4-oxadiazol-5-yl)pyrrolidine-1-carboximidamide hydrochloride]: the half-maximal inhibitory concentration (IC50) was no more than 2000 nM.

As to `CCCCCO/N=C(\C)c1ccc(-c2noc([C@@H]3CCN(C(=N)N)C3)n2)cc1` [Compound 40l, (R)-3-(3-(4-(1-((pentyloxy)imino)ethyl)phenyl)-1,2,4-oxadiazol-5-yl)pyrrolidine-1-carboximidamide hydrochloride], the half-inhibitory concentration (IC50) is greater than 2000 nM.

As for `CCCCCCCCNC(=O)c1ccc(-c2noc([C@@H]3CCN(C(=N)N)C3)n2)cc1` [Compound 40p, (R)-4-(5-(1-carbamimidoylpyrrolidin-3-yl)-1,2,4-oxadiazol-3-yl)-N-octylbenzamide hydrochloride], the IC50 is greater than 2000 nM.

In the case of `CCCCCCCCCCc1ccc(-c2noc([C@@H]3CCNC3)n2)cc1` [Compound 5g, (R)-3-(3-(4-decylphenyl)-1,2,4-oxadiazol-5-yl)pyrrolidin-1-ium 2,2,2-trifluoroacetate], the IC50 is greater than 2000 nM.

With `CCCCCCCCCCc1ccc(-c2noc(C[C@H]3CCNC3)n2)cc1` [Compound 5l, (R)-3-(4-decylphenyl)-5-(pyrrolidin-3-ylmethyl)-1,2,4-oxadiazole 2,2,2-trifluoroacetate], the IC50 is no more than 2000 nM.

With `CCCCCCCCCCc1ccc(-c2noc([C@H]3CCCNC3)n2)cc1` [Compound 5f, (S)-3-(3-(4-decylphenyl)-1,2,4-oxadiazol-5-yl)piperidin-1-ium 2,2,2-trifluoroacetate], the IC50 was greater than 2000 nM.

On to `CC(C)(C)c1cccc(Nc2ccc(-c3noc([C@@H]4CCN(C(=N)N)C4)n3)cn2)c1` [Compound 15g, (R)-3-(3-(6-((3-(tert-butyl)phenyl)amino)pyridin-3-yl)-1,2,4-oxadiazol-5-yl)pyrrolidine-1-carboximidamide hydrochloride], for which the IC50 was greater than 2000 nM.

For the compound `CCCCCCCCCc1ccc(-c2noc(C3CN(C(=N)N)C3)n2)cc1` [Compound 7c, 3-(3-(4-nonylphenyl)-1,2,4-oxadiazol-5-yl)azetidine-1-carboximidamide hydrochloride], the half-maximal inhibitory concentration (IC50) is no more than 2000 nM.

For the compound `C/C(=N\OCc1ccccc1)c1ccc(-c2noc([C@@H]3CCNC3)n2)cc1` [Compound 38g, (R)-1-(4-(5-(pyrrolidin-3-yl)-1,2,4-oxadiazol-3-yl)phenyl)ethan-1-one O-benzyl oxime hydrochloride], the 50% inhibitory concentration (IC50) was greater than 2000 nM.

`CCCCCCCCOc1ccc(-c2noc([C@@H]3CCCN(C(=N)N)C3)n2)cc1C(F)(F)F` [Compound 23d, (R)-3-(3-(4-(octyloxy)-3-(trifluoromethyl)phenyl)-1,2,4-oxadiazol-5-yl)piperidine-1-carboximidamide hydrochloride]: the 50% inhibitory concentration (IC50) is greater than 2000 nM.

Consider `CCCCc1ccc(Nc2ccc(-c3noc([C@@H]4CCNC4)n3)cn2)cc1` [Compound 13i, (R)—N-(4-butylphenyl)-5-(5-(pyrrolidin-3-yl)-1,2,4-oxadiazol-3-yl)pyridin-2-amine hydrochloride], for which the IC50 was greater than 2000 nM.

`c1ccc(CCCOc2ccc(-c3noc(C4CNC4)n3)cc2)cc1` [Compound 13j, 5-(azetidin-3-yl)-3-(4-(3-phenylpropoxy)phenyl)-1,2,4-oxadiazole hydrochloride]: the half-inhibitory concentration (IC50) was greater than 2000 nM.

For the compound `C/C(=N\OCc1ccc(Br)cc1)c1ccc(-c2noc([C@@H]3CCN(C(=N)N)C3)n2)cc1` [Compound 40n, (R)-3-(3-(4-(1-(((4-bromobenzyl)oxy)imino)ethyl)phenyl)-1,2,4-oxadiazol-5-yl)pyrrolidine-1-carboximidamide hydrochloride], the IC50 is greater than 2000 nM.

Regarding `CCCCCCCCCCc1ccc(-c2noc([C@H]3CCCN(C(=N)N)C3)n2)cc1` [Compound 7f, (S)-amino(3-(3-(4-decylphenyl)-1,2,4-oxadiazol-5-yl)piperidin-1-yl)methaniminium chloride], the IC50 was no more than 2000 nM.

For `N=C(N)N1CC[C@@H](c2nc(-c3ccc(Nc4ccccc4Cl)nc3)no2)C1` [Compound 15e, (R)-3-(3-(6-((2-chlorophenyl)amino)pyridin-3-yl)-1,2,4-oxadiazol-5-yl)pyrrolidine-1-carboximidamide hydrochloride], the IC50 was greater than 2000 nM.

`CCCCCCCCOc1ccc(-c2noc(C3CN(C(=N)N)C3)n2)cc1C(F)(F)F` [Compound 23a, 3-(3-(4-(octyloxy)-3-(trifluoromethyl)phenyl)-1,2,4-oxadiazol-5-yl)azetidine-1-carboximidamide hydrochloride]: the 50% inhibitory concentration (IC50) was no more than 2000 nM.

With `CCCCCO/N=C(\C)c1ccc(-c2noc([C@@H]3CCNC3)n2)cc1` [Compound 38l, (R)-1-(4-(5-(pyrrolidin-3-yl)-1,2,4-oxadiazol-3-yl)phenyl)ethan-1-one O-pentyl oxime hydrochloride], the half-inhibitory concentration (IC50) is greater than 2000 nM.

Turning to `CCCCCCCCCCCc1ccc(-c2noc(C3CN(C(=N)N)C3)n2)cc1C(F)(F)F` [Compound 30c, 3-(3-(3-(trifluoromethyl)-4-undecylphenyl)-1,2,4-oxadiazol-5-yl)azetidine-1-carboximidamide hydrochloride], the half-inhibitory concentration (IC50) was greater than 2000 nM.

Take `C/C(=N\OCCCCc1ccccc1)c1ccc(-c2noc([C@@H]3CCNC3)n2)cc1` [Compound 38a, (R)-1-(4-(5-(pyrrolidin-3-yl)-1,2,4-oxadiazol-3-yl)phenyl)ethan-1-one O-(4-phenylbutyl) oxime hydrochloride]: the IC50 is no more than 2000 nM.

`C/C(=N\OCc1ccc2c(c1)C(C)(C)CCC2(C)C)c1ccc(-c2noc([C@@H]3CCN(C(=N)N)C3)n2)cc1` [Compound 40h, (R)-3-(3-(4-(1-(((5,5,8,8-tetramethyl-5,6,7,8-tetrahydronaphthalen-2-yl)methoxy)imino)ethyl)phenyl)-1,2,4-oxadiazol-5-yl)pyrrolidine-1-carboximidamide hydrochloride]: the IC50 is no more than 2000 nM.

As to `CCCCCCCCCCc1ccc(-c2noc(C[C@@H]3CCN(C(=N)N)C3)n2)cc1` [Compound 7p, (S)-3-((3-(4-decylphenyl)-1,2,4-oxadiazol-5-yl)methyl)pyrrolidine-1-carboximidamide 2,2,2-trifluoroacetate], the IC50 was no more than 2000 nM.

Take `CCCCCCCCCCCc1ccc(-c2noc([C@@H]3CCN(C(=N)N)C3)n2)cc1` [Compound 7xa, (R)-3-(3-(4-undecylphenyl)-1,2,4-oxadiazol-5-yl)pyrrolidine-1-carboximidamide hydrochloride]: the 50% inhibitory concentration (IC50) is no more than 2000 nM.

In the case of `CCCCCCCCCCc1ccc(-c2noc([C@@H]3CCCN(C(=N)N)C3)n2)cc1C(F)(F)F` [Compound 30e, (R)-3-(3-(4-decyl-3-(trifluoromethyl)phenyl)-1,2,4-oxadiazol-5-yl)piperidine-1-carboximidamide hydrochloride], the half-inhibitory concentration (IC50) is no more than 2000 nM.

Regarding `C/C(=N\OCc1cc(C(F)(F)F)cc(C(F)(F)F)c1)c1ccc(-c2noc([C@@H]3CCNC3)n2)cc1` [Compound 38b, (R)-1-(4-(5-(pyrrolidin-3-yl)-1,2,4-oxadiazol-3-yl)phenyl)ethan-1-one O-(3,5-bis(trifluoromethyl)benzyl) oxime hydrochloride], the IC50 was no more than 2000 nM.

Regarding `CCCCCCCCCCc1ccc(-c2noc(C[C@@H]3CCCN(C(=N)N)C3)n2)cc1` [Compound 7q, (S)-3-((3-(4-decylphenyl)-1,2,4-oxadiazol-5-yl)methyl)piperidine-1-carboximidamide 2,2,2-trifluoroacetate], the half-maximal inhibitory concentration (IC50) is no more than 2000 nM.

For the compound `Clc1ccccc1Nc1ccc(-c2noc([C@@H]3CCNC3)n2)cn1` [Compound 13e, (R)—N-(2-chlorophenyl)-5-(5-(pyrrolidin-3-yl)-1,2,4-oxadiazol-3-yl)pyridin-2-amine hydrochloride], the IC50 is greater than 2000 nM.

As to `CCCCCCCOc1ccc2cc(-c3noc([C@@H]4CCN(C(=N)N)C4)n3)ccc2c1` [Compound 7kk, (R)-3-(3-(6-(heptyloxy)naphthalen-2-yl)-1,2,4-oxadiazol-5-yl)pyrrolidine-1-carboximidamide hydrochloride], the 50% inhibitory concentration (IC50) was no more than 2000 nM.

Turning to `CCCCCCCCCCCc1ccc(-c2noc(C3CN(C(=N)N)C3)n2)cc1` [Compound 7a, 3-(3-(4-undecylphenyl)-1,2,4-oxadiazol-5-yl)azetidine-1-carboximidamide hydrochloride], the IC50 was greater than 2000 nM.

These data come from patent publication US12590083B2, “Inhibitors of spinster homolog 2 (SPNS2) for use in therapy” (University of Virginia Patent Foundation, priority 2019, dated 2026).
